Reference: patent publication US9512139B2, “Conformationally constrained, fully synthetic macrocyclic compounds” (POLYPHOR AG, priority 2009, dated 2016)
Like-named read-outs stand apart in the source and are kept apart here.

Columns and labels:
[1] = amide bond
[2] = in vitro; format: in vitro ADME, human
[3] = in vitro; format: in vitro ADME, mouse
Protocol: Example compounds were dissolved in DMSO/H2O 90:10 to a final concentration of 10 mM for plasma stability determination and metabolic stability determination.
Human plasma (3-5 donors, Blutspendedienst SRK, Basel) and CD-1 mouse plasma (mixed gender pool >50 animals, Innovative Research, CA, USA) are both sodium citrate stabilized. The assay is performed in triplicates at 10 μM compound concentration and 37° C. Samples are taken at 0, 15, 60, and 240 minutes and stopped by precipitation with 2 volumes of acetonitrile. The supernatant is collected, evaporated and reconstituted in a 5% acetonitrile solution to be analyzed by HPLC/MS/MS. The resulting peak area counts are expressed in percent of the 0 value and used to determine the endpoint stability in % and the half life in minutes. In order to monitor assay integrity the degradation of propantheline is assayed with every experimental set.

[4] = Metabolic stability assay, human microsomes; format: in vitro ADME; conditions: for half-life at 10 µM: both sexes
[5] = Metabolic stability assay, CD-1 mouse microsomes; format: in vitro ADME; conditions: for half-life at 10 µM: both sexes
[6] = Metabolic stability assay, rat microsomes (values in parentheses); format: in vitro ADME; conditions: value in parentheses
[7] = both, CD-1, mouse, plasma, 10 µM
[8] = both, CD-1, mouse, plasma, 4 h, 10 µM
[9] = both, human, microsomes, 1 h, 10 µM
[10] = both, CD-1, mouse, microsomes, 10 µM
[11] = both, CD-1, mouse, microsomes, 1 h, 10 µM
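For Plasma Stability 240 min mouse [% remain.] in this document: sodium citrate stabilized mouse plasma, parent compound quantified by HPLC/MS/MS relative to its peak area at time zero, run in triplicate.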
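For Plasma Stability T½ [min] mouse in this document: sodium citrate stabilized mouse plasma, parent compound quantified by HPLC/MS/MS relative to its peak area at time zero, run in triplicate.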

With `CN1CC(=O)N2C[C@@H](NC(=O)OC(C)(C)C)C[C@H]2COc2ccc(F)cc2C(=O)N(C)[C@@H](C(=O)OCc2ccccc2)CCC1=O` the ring closure, yield of all isomers ([1]; from CNCC(=O)N1C[C@@H](NC(=O)OC(C)(C)C)C[C@H]1COc1ccc(F)cc1C(=O)N(C)[C@H](CCC(=O)O)C(=O)OCc1ccccc1, T3P / i-Pr2NEt, CH2Cl2, 10.8 mM) was 92%.
In the case of `CN1CC(=O)N2C[C@H](NC(=O)OC(C)(C)C)C[C@H]2COc2ccc(F)cc2C(=O)N(C)[C@@H](C(=O)OCc2ccccc2)CCC1=O`, the ring closure, yield of all isomers ([1]; from CNCC(=O)N1C[C@H](NC(=O)OC(C)(C)C)C[C@H]1COc1ccc(F)cc1C(=O)N(C)[C@H](CCC(=O)O)C(=O)OCc1ccccc1, T3P / i-Pr2NEt, CH2Cl2, 5.08 mM) is reported as 60%.
`CN1CC(=O)N2C[C@H](NC(=O)OC(C)(C)C)C[C@H]2COc2ccc(F)cc2C(=O)N(C)[C@H](C(=O)OCc2ccccc2)CCC1=O` showed a ring closure, yield of all isomers ([1]; from CNCC(=O)N1C[C@H](NC(=O)OC(C)(C)C)C[C@H]1COc1ccc(F)cc1C(=O)N(C)[C@@H](CCC(=O)O)C(=O)OCc1ccccc1, T3P, CH2Cl2, 10.5 mM, 25.0 °C, 20.0 h) of 87%.
`CN1CC(=O)N2C[C@H](NC(=O)OC(C)(C)C)C[C@H]2COc2ccc(cc2)C(=O)N(C)[C@H](C(=O)OCc2ccccc2)CCC1=O` gave a ring closure, yield of all isomers ([1]; from CNCC(=O)N1C[C@H](NC(=O)OC(C)(C)C)C[C@H]1COc1ccc(C(=O)N(C)[C@@H](CCC(=O)O)C(=O)OCc2ccccc2)cc1, T3P, i-Pr2NEt, CH2Cl2, 1.05 mM, 3.0 h) of 54%.
In the case of `CN1CC(=O)N2C[C@H](NC(=O)OC(C)(C)C)C[C@H]2COc2ccsc2C(=O)N(C)[C@H](C(=O)OCc2ccccc2)CCC1=O`, the ring closure, yield of all isomers ([1]; from CNCC(=O)N1C[C@H](NC(=O)OC(C)(C)C)C[C@H]1COc1ccsc1C(=O)N(C)[C@@H](CCC(=O)O)C(=O)OCc1ccccc1, T3P, CH2Cl2, 10.0 mM, 25.0 °C, 1.0 h) is reported as 69%.
Compound `CN1CC(=O)N2C[C@H](NC(=O)OC(C)(C)C)C[C@H]2CSc2cccc(c2)C(=O)N(C)[C@H](C(=O)OCc2ccccc2)CCC1=O` has a ring closure, yield of all isomers ([1]; from CNCC(=O)N1C[C@H](NC(=O)OC(C)(C)C)C[C@H]1CSc1cccc(C(=O)N(C)[C@@H](CCC(=O)O)C(=O)OCc2ccccc2)c1, T3P, i-Pr2NEt, CH2Cl2, 10.0 mM, 25.0 °C, 3.0 h) of 57%.
For `CN1CCC(=O)N2C[C@H](NC(=O)OC(C)(C)C)C[C@H]2COc2ccc(F)cc2C(=O)N(C)[C@H](C(=O)OCc2ccccc2)CCC1=O`, the ring closure, yield of all isomers ([1]; from CNCCC(=O)N1C[C@H](NC(=O)OC(C)(C)C)C[C@H]1COc1ccc(F)cc1C(=O)N(C)[C@@H](CCC(=O)O)C(=O)OCc1ccccc1, T3P / i-Pr2NEt, CH2Cl2, 10.6 mM) was 82%.
Work on `CN1C[C@@H](NC(=O)OCc2ccccc2)C(=O)N(C)CC(=O)N2C[C@@H](NC(=O)OC(C)(C)C)C[C@H]2COc2cccc(c2)C1=O` yielded a ring closure, yield of all isomers ([1]; from CNCC(=O)N1C[C@@H](NC(=O)OC(C)(C)C)C[C@H]1COc1cccc(C(=O)N(C)C[C@@H](NC(=O)OCc2ccccc2)C(=O)O)c1, FDPP, DMF, 1.0 mM, 60.0 °C, 20.0 h) of 78%.
For `CN1C[C@H](NC(=O)OCc2ccccc2)C(=O)N(C)CC(=O)N2C[C@@H](NC(=O)OC(C)(C)C)C[C@H]2COc2cccc(c2)C1=O`, the ring closure, yield of all isomers ([1]; from CNCC(=O)N1C[C@@H](NC(=O)OC(C)(C)C)C[C@H]1COc1cccc(C(=O)N(C)C[C@H](NC(=O)OCc2ccccc2)C(=O)O)c1, T3P / i-Pr2NEt, CH2Cl2, 0.96 mM) was 73% and the ring closure, yield of all isomers ([1]; from CNCC(=O)N1C[C@@H](NC(=O)OC(C)(C)C)C[C@H]1COc1cccc(C(=O)N(C)C[C@H](NC(=O)OCc2ccccc2)C(=O)O)c1, T3P / i-Pr2NEt, CH2Cl2, 1.0 mM) was 39%.
`Cc1c2c3cc(ccc3n1C)OC[C@@H]1C[C@@H](NC(=O)OC(C)(C)C)CN1C(=O)CN(C)C(=O)CC[C@@H](C(=O)OCc1ccccc1)N(C)C2=O` gave a ring closure, yield of all isomers ([1]; from CNCC(=O)N1C[C@H](NC(=O)OC(C)(C)C)C[C@H]1COc1ccc2c(c1)c(C(=O)N(C)[C@@H](CCC(=O)O)C(=O)OCc1ccccc1)c(C)n2C, T3P, CH2Cl2, 9.85 mM) of 58%.
In the case of `O=C(N[C@H]1CCCNC(=O)c2cccc(c2)OC[C@@H]2C[C@H](Oc3ccccc3)CN2C1=O)OCc1ccccc1`, the ring closure, yield of all isomers ([1]; from O=C(N[C@@H](CCCNC(=O)c1cccc(OC[C@@H]2C[C@H](Oc3ccccc3)CN2)c1)C(=O)O)OCc1ccccc1, HATU, HOAt, i-Pr2NEt, DMF, 0.98 mM, 25.0 °C, 20.0 h) is reported as 88%.
Compound `O=C1NCCC[C@H](O)C(=O)N2C[C@@H](OCc3ccc(Br)cc3)C[C@H]2COc2cccc1c2` has a ring closure, yield of all isomers ([1]; from O=C(NCCC[C@H](O)C(=O)O)c1cccc(OC[C@@H]2C[C@H](OCc3ccc(Br)cc3)CN2)c1, T3P, i-Pr2NEt, CH2Cl2, 1.0 mM) of 47%.
For `CN1C[C@H](NC(=O)OCc2ccccc2)C(=O)N(C)CC(=O)N2C[C@@H](NC(=O)OC(C)(C)C)C[C@H]2COc2cncc(c2)C1=O` [Ex. 272, benzyl N-[(4S,6S,13S)-6-[(tert-butoxycarbonyl)amino]-11,15-dimethyl-9,12,16-trioxo-2-oxa-8,11,15,19-tetraazatricyclo[15.3.1.0^4,8]henicosa-1(21),17,19-trien-13-yl]carbamate], the ring closure, yield of all isomers ([1]; from CNCC(=O)N1C[C@@H](NC(=O)OC(C)(C)C)C[C@H]1COc1cncc(C(=O)N(C)C[C@H](NC(=O)OCc2ccccc2)C(=O)O)c1, T3P, i-Pr2NEt, CH2Cl2, 9.75 mM) was 38%, the Plasma Stability T½ [min] hum ([2]; human, plasma, 10 µM) was over 240 min and the “Plasma Stability 240 min hum [% remain.]” value ([2]; human, plasma, 4 h, 10 µM) was 95 % remain. The Plasma Stability T½ [min] mouse [3, 7] was over 240 min, the “Plasma Stability 240 min mouse [% remain.]” value [3, 8] was 92 % remain and the Metabolic Stability T½ [min] hum ([4]; both, human, microsomes, 10 µM) was over 60 min. For the same compound, the “Metabolic Stability 60 min hum [% remain.]” value [4, 9] was 65 % remain, the Metabolic Stability T½ [min] mouse [5, 10] was over 60 min and the “Metabolic Stability 60 min mouse [% remain.]” value [5, 11] was 81 % remain.
In the case of `CN1CCC[C@H](NC(=O)OCc2ccccc2)C(=O)N[C@@H]2C[C@@H](COc3ccc(F)cc3C1=O)N(C(=O)OC(C)(C)C)C2` [Ex. 403, tert-butyl (1S,15S,18R)-15-{[(benzyloxy)carbonyl]amino}-7-fluoro-11-methyl-10,16-dioxo-3-oxa-11,17,20-triazatricyclo[16.2.1.0^4,9]henicosa-4,6,8-triene-20-carboxylate], the ring closure, yield of all isomers ([1]; from CN(CCC[C@H](NC(=O)OCc1ccccc1)C(=O)O)C(=O)c1cc(F)ccc1OC[C@@H]1C[C@@H](N)CN1C(=O)OC(C)(C)C, FDPP, DMF, 1.0 mM) is reported as 73%, the Plasma Stability T½ [min] hum ([2]; human, plasma, 10 µM) is reported as over 240 min and the “Plasma Stability 240 min hum [% remain.]” value ([2]; human, plasma, 4 h, 10 µM) is reported as 100 % remain. The Plasma Stability T½ [min] mouse [3, 7] was over 240 min, the “Plasma Stability 240 min mouse [% remain.]” value [3, 8] was 65 % remain and the half-life at 10 µM ([4]; human, microsomes) was 0.6 h. The “Metabolic Stability 60 min hum [% remain.]” value [4, 9] was 37 % remain, the half-life at 10 µM ([5]; CD-1, mouse, microsomes) was 0.95 h and the “Metabolic Stability 60 min mouse [% remain.]” value [5, 11] was 55 % remain.
In the case of `CN1CCC[C@H](NC(=O)Cc2ccccc2)C(=O)N[C@H]2CN[C@H](COc3ccc(F)cc3C1=O)C2` [Ex. 406, N-[(1S,15S,18R)-7-fluoro-11-methyl-10,16-dioxo-3-oxa-11,17,20-triazatricyclo[16.2.1.0^4,9]henicosa-4,6,8-trien-15-yl]-2-phenylacetamide], the Plasma Stability T½ [min] hum ([2]; human, plasma, 10 µM) is reported as over 240 min, the “Plasma Stability 240 min hum [% remain.]” value ([2]; human, plasma, 4 h, 10 µM) is reported as 75 % remain and the Plasma Stability T½ [min] mouse [3, 7] is reported as over 240 min. For the same compound, the “Plasma Stability 240 min mouse [% remain.]” value [3, 8] was 89 % remain, the Metabolic Stability T½ [min] hum ([4]; both, human, microsomes, 10 µM) was over 60 min and the “Metabolic Stability 60 min hum [% remain.]” value [4, 9] was 77 % remain. The Metabolic Stability T½ [min] mouse [5, 10] was over 60 min, the “Metabolic Stability 60 min mouse [% remain.]” value [5, 11] was 94 % remain and the “Metabolic Stability 60 min (rat) [% remain.]” value [6] was 96 % remain. For the same compound, the “Metabolic Stability T½ [min] (rat)” value [6] was 60 (60) min.
In the case of `CN1CCC[C@H](NCC(C)(C)C)C(=O)N2C[C@@H](Oc3ccccc3)C[C@H]2COc2cccc(c2)C1=O` [Ex. 563, (4S,6S,10S)-14-methyl-10-(neopentylamino)-6-phenoxy-2-oxa-8,14-diazatricyclo[14.3.1.0^4,8]icosa-1(20),16,18-triene-9,15-dione], the Plasma Stability T½ [min] hum ([2]; human, plasma, 10 µM) is reported as over 240 min, the “Plasma Stability 240 min hum [% remain.]” value ([2]; human, plasma, 4 h, 10 µM) is reported as 88 % remain and the Plasma Stability T½ [min] mouse [3, 7] is reported as over 240 min. For the same compound, the “Plasma Stability 240 min mouse [% remain.]” value [3, 8] was 81 % remain, the half-life at 10 µM ([4]; human, microsomes) was 0.133 h and the “Metabolic Stability 60 min hum [% remain.]” value [4, 9] was 1 % remain. The half-life at 10 µM ([5]; CD-1, mouse, microsomes) was 0.2 h, the “Metabolic Stability 60 min mouse [% remain.]” value [5, 11] was 4 % remain and the “Metabolic Stability 60 min (rat) [% remain.]” value [6] was 32 % remain. For the same compound, the half-life at 10 µM ([6]; read-out: Metabolic Stability T½ [min] (rat)) was 31 min.
For `CN1CCC[C@H](N)C(=O)N2C[C@@H](OCc3ccc(-c4ccccc4)cc3)C[C@H]2COc2cccc(c2)C1=O` [Ex. 570, (4S,65,10S)-10-amino-6-([1,1′-biphenyl]-4-ylmethoxy)-14-methyl-2-oxa-8,14-diazatricyclo[14.3.1.0^4,8]icosa-1(20),16,18-triene-9,15-dione], the “Plasma Stability 240 min hum [% remain.]” value ([2]; human plasma, 240 min) was 92 % remain, the Plasma Stability T½ [min] hum ([2]; human, plasma) was over 240 min and the “Plasma Stability 240 min mouse [% remain.]” value ([3]; mouse plasma, 240 min) was 100 % remain. For the same compound, the Plasma Stability T½ [min] mouse ([3]; mouse, plasma) was over 240 min, the “Metabolic Stability 60 min hum [% remain.]” value ([4]; human microsomes, 60 min) was 20 % remain and the “Metabolic Stability T½ [min] hum” value ([4]; human, microsomes) was 13 min. The “Metabolic Stability 60 min mouse [% remain.]” value ([5]; mouse microsomes, 60 min) was 69 % remain, the Metabolic Stability T½ [min] mouse ([5]; mouse, microsomes) was over 60 min and the “Metabolic Stability 60 min (rat) [% remain.]” value [6] was 76 % remain. For the same compound, the “Metabolic Stability T½ [min] (rat)” value [6] was 60 (60) min.
For `CO[C@H]1C[C@H]2COc3cccc(c3)C(=O)N(C)CCC[C@H](NC(=O)CC(C)(C)C)C(=O)N2C1` [Ex. 572, N-[(4S,6S,10S)-6-methoxy-14-methyl-9,15-dioxo-2-oxa-8,14-diazatricyclo[14.3.1.0^4,8]icosa-1(20),16,18-trien-10-yl]-3,3-dimethylbutanamide], the Plasma Stability T½ [min] hum ([2]; human, plasma, 10 µM) was over 240 min, the “Plasma Stability 240 min hum [% remain.]” value ([2]; human, plasma, 4 h, 10 µM) was 85 % remain and the Plasma Stability T½ [min] mouse [3, 7] was over 240 min. The “Plasma Stability 240 min mouse [% remain.]” value [3, 8] was 100 % remain, the half-life at 10 µM ([4]; human, microsomes) was 0.9 h and the “Metabolic Stability 60 min hum [% remain.]” value [4, 9] was 49 % remain. The Metabolic Stability T½ [min] mouse [5, 10] was over 60 min, the “Metabolic Stability 60 min mouse [% remain.]” value [5, 11] was 54 % remain and the “Metabolic Stability 60 min (rat) [% remain.]” value [6] was 92 % remain. For the same compound, the “Metabolic Stability T½ [min] (rat)” value [6] was 60 (60) min.
